This is an account of results in patent publication US4963585A, “Compound, WF11605 and derivative thereof” (Fujisawa Pharmaceutical Company, Ltd., priority 1988, dated 1990).

The subject of data set [1] is LTB4-induced degranulation in rabbit PMNLs. Briefly: LTB4-induced degranulation (beta-glucuronidase release) of rabbit PMNLs. The format is cell-based. To be noted: Oryctolagus cuniculus, PMNL, LTB4 7×10^-8 M, Cytochalasin B 10^-5 M. The procedure:
(§1) PMNLs were collected from the peritoneal exudates of male Japanese White rabbits. At 16 hr after the injection of 0.1% glycogen (400 ml/animal, i.p.), the peritoneal cells were collected and washed with Eagle's minimum essential medium (MEM) and resuspended in the same medium. Over 90% of the cells were judged as PMNLs after Giemsa staining .
(§2) PMNL suspension (5×10^6 cells/ml) was incubated with test substance or vehicle at 37° C. for 5 min in plastic tubes. Leukotriene B4 (LTB4, 7×10^-8 M, Cayman Chemical Co.,), […] (FMLP, 7×10^-10 M, Sigma) or platelet activating factor (PAF, 7×10^-7 M, Sigma) together with Cytochalasin B (10^-5 M, Sigma) were added and then incubated for 5 min at 37° C. Incubation was terminated by transfer to an ice bath followed by rapid centrifugation. The cell-free supernatants were subsequently assayed for the activity of beta-glucuronidase.
The assay mixture consisted of 300 μl of acetate buffer (0.1M, pH 4.6), 100 μl of sample (supernatant obtained above) and 50 μl of methylumbelliferyl-beta-D-glucuronide (1 mM, NAKARAI CHEMICAL Co.,) as substrate. The reaction was started by addition of the substrate and terminated after 15 min at 37° C. by the addition of 2 ml glycine buffer (0.1M, pH 10.32). The fluorescence (excitation; 365 nm, emission; 455 nm) of each sample was determined.
(§3) The results are expressed as percent of total beta-glucuronidase released where total are the amount of the enzyme in the cells released by 0.1% Triton X-100.

Data set [2] relates to FMLP-induced degranulation in rabbit PMNLs. Briefly: FMLP-induced degranulation (beta-glucuronidase release) of rabbit PMNLs. The data set is classed as cell-based. To be noted: Oryctolagus cuniculus, PMNL; FMLP 7×10^-10 M, Cytochalasin B 10^-5 M; read-out: 50% inhibitory concentration (IC50), FMLP-induced degranulation. As for the experimental part: as §1, §2
(§4) The assay mixture consisted of 300 μl of acetate buffer (0.1M, pH 4.6), 100 μl of sample (supernatant obtained above) and 50 μl of methylumbelliferyl-beta-D-glucuronide (1 mM, NAKARAI CHEMICAL Co.,) as substrate. […] The fluorescence (excitation; 365 nm, emission; 455 nm) of each sample was determined.
as §3

Data set [3] deals with PAF-induced degranulation in rabbit PMNLs. Briefly: PAF-induced degranulation (beta-glucuronidase release) of rabbit PMNLs. The format is cell-based. To be noted: Oryctolagus cuniculus, PMNL; PAF 7×10^-7 M, Cytochalasin B 10^-5 M; read-out: 50% inhibitory concentration (IC50), PAF-induced degranulation. The procedure: as §1, §2, §4, §3
The target of data set [4] is T1, ^3 H-LTB4 receptor (rabbit PMNLs) (Oryctolagus cuniculus, UniProt G1U4T1).
T1 construct: endogenous in cells; host or cells: freeze-thawed polymorphonuclear leukocytes (PMNLs) from peritoneal exudate of rabbit (glycogen-elicited, male Japanese White rabbits)
T1 sequence (G1U4T1 1-363): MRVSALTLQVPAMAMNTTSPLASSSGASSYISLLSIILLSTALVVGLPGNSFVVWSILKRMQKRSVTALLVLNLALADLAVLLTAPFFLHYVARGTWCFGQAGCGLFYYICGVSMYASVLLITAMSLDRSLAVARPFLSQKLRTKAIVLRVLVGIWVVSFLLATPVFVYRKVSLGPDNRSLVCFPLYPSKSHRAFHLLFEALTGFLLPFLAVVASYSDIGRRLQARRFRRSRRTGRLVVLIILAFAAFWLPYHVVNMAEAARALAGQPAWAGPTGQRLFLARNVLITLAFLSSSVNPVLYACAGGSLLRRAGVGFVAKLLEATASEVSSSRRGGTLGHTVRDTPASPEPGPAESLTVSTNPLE
The data set can be described thus: Inhibition of binding of ^3 H-LTB4 to freeze-thawed PMNLs (^3 H-LTB4 receptor assay). To be noted: 4° C., 30 min; for ^3 H-LTB4 specific binding: control 1684 dpm. The procedure: PMNLs collected from the peritoneal exudate of rabbit were suspended at a concentration of 5×10^6 /ml in Eagle's MEM, stored at -20° C. and used within 2 weeks. On use, the PMNLs were thawed at room temperature and kept at 4° C.
^3 H-LTB4 ((5,6,8,9,11,14,15 (n)-^3 H)Leukotriene B4, 20 μCi/ml, Amersham Co., Japan) was diluted 20-fold with 3×10^-9M nonradioactive LTB4 in Hanks' balanced salt solution containing 10 mM N-(2-Hydroxyethyl)-piperazine-N'-2-ethanesulfonic acid, pH 7.4 (HBSS-HEPES). Fifteen microlitter of the solution was added to 60 μl HBSS-HEPES at 4° C. and then 25 μl of competitor or corresponding vehicle and 150 μl of freeze-thrawed cells (5×10^6 /ml) were also added, followed by vigorous mixing and allowing to stand for 30 min at 4° C. The resultant mixture was immediately filtered through Whatman GF/C glass filter to separate free and bound ^3 H-LTB4 using cell harvester (BRANDELL M-24R 5/8). The filter paper was quickly washed 5 times by 150 μl of cold HBSS-HEPES, dried, cut off and placed in a scintillation vial. To the vial was added 3 ml of toluene-based scintillation fluid and then the radioactivity was counted. All assay were carried out in duplicate. Specific binding defined as total binding minus non specific binding (with 0.1 μM LTB4), was about 60% of total binding.

In a further data set the test system is Candida albicans FP633. The data set can be described thus: Antimicrobial activity, broth dilution method. The data set is classed as cell-based. To be noted: Sabouraud 30° C. 20 hrs. The procedure: (§5) Antimicrobial activity of WF11605 was determined by broth dilution method in a conventional manner.
(§6) ^1 Sabuoraud 30° C. 20 hrs

For another data set, the system named is Candida krusei OUT-6007. Briefly: Antimicrobial activity, broth dilution method. To be noted: Pichia kudriavzevii, OUT6007; Sabouraud 30° C. 20 hrs. The format is cell-based. The procedure:
as §5, §6

Another data set deals with Candida utilis. Briefly: Antimicrobial activity, broth dilution method. The format is cell-based. To be noted: Williopsis jadinii; Sabouraud 30° C. 20 hrs. The procedure:
as §5, §6
A general note: In broth dilution the organism is exposed to a series of concentrations in liquid medium.

The test system of data set [5] is Cryptococcus albidus AHU-3922. The data set can be described thus: Antimicrobial activity, broth dilution method. The format is cell-based. The settings on record: Naganishia albida, AHU3922; Sabouraud 30° C. 20 hrs. As for the experimental part: as §5, §6
The subject of data set [6] is Torulopsis colliculsa IAM-4426. The data set can be described thus: Antimicrobial activity, broth dilution method. The settings on record: Sabouraud 30° C. 20 hrs. The format is cell-based. As for the experimental part: as §5, §6
A further data set deals with Mucor rouxianus Wehmer. Briefly: Antimicrobial activity, broth dilution method. The data set is classed as cell-based. To be noted: Sabouraud 25° C. 40 hrs. As for the experimental part: as §5
^2 Sabouraud 25° C. 40 hrs

The next data set relates to certain yeasts. The data set can be described thus: Antimicrobial activity, broth dilution method (summary). The data set is classed as cell-based. As for the experimental part: as §5
The nature of data set [7]: Acute toxicity, intraperitoneal, mice. To be noted: mouse, in vivo, ip, female, 4 weeks old. The source says: The WF11605 was intraperitoneally given to mice (female, 4 weeks old). From the test results, LD50 of WF11605 was more than 1 g/kg.
The nature of another data set: Solubility. The settings on record: free form. The format is physicochemical.

SMILES strings stand for the structures. pIC50: −log10 of the molar value. ≈ marks a conversion by molar mass, not a printed value. Some results are limits rather than exact numbers.

For orientation: inhibition means the change of the read-out against control, counted positive when it falls. By MIC is commonly meant the smallest concentration in the dilution series that meets the test's criterion for growth inhibition. Lower therefore signals a more susceptible organism. Broadly, the LD50 is the dose at which mortality reaches 50%. A low value points to greater toxicity. With `CC(=O)OC1CC2(C)C3=C(CCC2C(C)(C)C1OC1OC(CO)C(O)C(O)C1O)C1(C)CC(=O)C(C)(C(C)C(C)C)C(C(=O)O)C1(C)CC3` (stereo not shown) [WF11605], the pIC50 is 5.52 in data set [1] (read-out: 50% inhibitory concentration (IC50), LTB4-induced degranulation); less than 4.00 in [2]; less than 4.00 in data set [3]. Moreover, the inhibition at 100 µM in data set [1] (WF11605 10^-4 M, read-out: Inhibition of total beta-glucuronidase release) is 93.6%. In addition, the inhibition at 10 µM in data set [1] (WF11605 10^-5 M, read-out: Inhibition of total beta-glucuronidase release) came out at 66.9%. Further, the inhibition at 1 µM in data set [1] (WF11605 10^-6 M, read-out: Inhibition of total beta-glucuronidase release) worked out at 30.3%. Also, the inhibition at 0.1 µM in data set [1] (WF11605 10^-7 M, read-out: Inhibition of total beta-glucuronidase release) was determined as 17.5%. Moreover, the inhibition at 0.01 µM in [1] (WF11605 10^-8 M, read-out: Inhibition of total beta-glucuronidase release) amounted to 12.2%. For the same compound, the “^3 H-LTB4 specific binding” value in data set [4] (WF11605 7 × 10^-6 M) turned out to be 596 dpm; in data set [4] (WF11605 7 × 10^-7 M) it was 1264 dpm. Besides, the inhibition at 7 µM in [4] (WF11605 7 × 10^-6 M, read-out: inhibition of 3H-LTB4 specific binding) is 64.6%. The inhibition at 0.7 µM in data set [4] (WF11605 7 × 10^-7 M, read-out: inhibition of 3H-LTB4 specific binding) turned out to be 24.9%. Moreover, the minimum inhibitory concentration (MIC) against Candida albicans FP633 was determined as 25 µg/mL (≈ 36.1 µM); against Candida krusei OUT-6007 it was 25 µg/mL (≈ 36.1 µM); against Candida utilis, 50 µg/mL (≈ 72.2 µM); in [5], 100 µg/mL (≈ 144 µM); in data set [6], 50 µg/mL (≈ 72.2 µM); in the data set on Mucor rouxianus Wehmer, 200 µg/mL (≈ 289 µM). Also, in the data set with certain yeasts, the Antimicrobial activity entry is listed as “has antimicrobial activity against certain yeasts”. Also, in [7], the 50% lethal dose (LD50) was more than 1000 mg/kg. Also, the Solubility result in the data set “Solubility” (H2 O, methanol, ethanol) was “sparingly soluble”; in the data set “Solubility” (chloroform, ether), “insoluble”.
